Measurements published in publication PMC11904701, “Isolation and Characterization of Secondary Metabolites from Endemic and Edible Polygonum sivasicum with In Vitro Antioxidant and Cytotoxic Activities” (ACS Omega, 2025).
Values after ≈ are worked out from the molar mass of the structure shown.

Columns and labels:
[1] = ABTS cation radical assay; format: biochemical; details: mean ± SEM of three parallel measurements
Method: (§1) All data on bioactivity tests were averages of triplicate analyses. Activity assays were carried out at six concentrations, and the results are given as the IC50 values. The data were analyzed using One-way ANOVA followed by Tukey’s post hoc test. p < 0.05, p < 0.001 and p < 0.0001 were considered statistically significant. Data were recorded as mean ± SEM (standard error of the mean). […] IBM SPSS statistical software (Version: 28.0.0.0 (190)) and GraphPad Prism 10.2 were used for statistical analysis.

[2] = DPPH free radical scavenging assay; format: biochemical; details: mean ± SEM of three parallel measurements
Method: as §1

[3] = CUPRAC (Cupric Reducing Antioxidant Capacity) method; format: biochemical; details: A0.5 values, mean ± SEM of three parallel measurements
Method: as §1

[4] = β-carotene linoleic acid bleaching assay; format: biochemical; details: mean ± SEM of three parallel measurements
Method: as §1

HepG2 cells = system: HepG2 cells; parameters: method as in doi:10.14233/ajchem.2013.15043; details: cited from earlier work
[5] = system: CCD-1079Sk (human normal skin fibroblast epithelial cells); experiment: MTT cell viability assay, CCD-1079Sk; format: cell-based; details: 24 h, mean ± SD (n = 3)
Method: (§2) The A549 (human lung carcinoma epithelial cells, ATCC, CCL-185), MCF-7 (human breast cancer cells, ATCC, HTB-22), and CCD-1079Sk (human normal skin fibroblast epithelial cells, ATCC, CRL-2097) cell lines were initially seeded into culture flasks and grown in DMEM supplemented with 10% FBS (Sigma-Aldrich, St Louis, MO), 1% penicillin/streptomycin (Thermo Fisher Scientific, Carlsbad, CA). The cell lines were maintained in a humidified atmosphere of 5% CO2 at a temperature of 37 °C. The culture medium was changed every two days until the cells reached 80% confluence.
(§3) 3-(4,5-dimethyl-2-thiazolyl)-2,5-diphenyl-2H-tetrazolium bromide (MTT) was used to assess the cytotoxicity of hyperoside, annphenone, daucosterol, and P. sivasicum methanol extract. Cells were grown in 96-well plates at a density of 5 × 10^3 cells per well. In total, 70 to 80% of confluent cells (after 24 h) were treated with different concentrations of compounds (prepared in a medium containing 1% DMSO) in the growth medium for 24 h. At the end of the incubation periods, MTT solution was added to the wells to give a final concentration of 0.5 mg/mL. The cells were then incubated at 37 °C for a further 3.5 h. To solubilize the formazan crystals, 100 μL of DMSO was added to each well. The optical density was read at 570 nm by using an ELISA microplate reader and directly correlated with the number of viable cells. For each concentration, the data for which the measurement was repeated at least three times were compared. The relative % cell viability and the IC50 value were determined by plotting the graph as a function of concentration. Untreated cells were considered as control, and medium without cells was considered as background control. To determine the cytotoxic effect of compounds on cell viability, cells that were not treated with compounds were considered 100% viable, and cell viability was calculated according to the following formula: % Cell Viability = Sample/Control × 100.
(§4) All data on bioactivity tests were averages of triplicate analyses. Activity assays were carried out at six concentrations, and the results are given as the IC50 values. The data were analyzed using One-way ANOVA followed by Tukey’s post hoc test. p < 0.05, p < 0.001 and p < 0.0001 were considered statistically significant. Data were recorded as mean ± SEM (standard error of the mean). Significant differences between means were determined by the one-way ANOVA, and p values < 0.05 were regarded as significant. IBM SPSS statistical software (Version: 28.0.0.0 (190)) and GraphPad Prism 10.2 were used for statistical analysis.

[6] = system: MCF-7 (human breast cancer cells); experiment: MTT cell viability assay, MCF-7; format: cell-based; details: 24 h; for IC50: Homo sapiens, MCF7, MTT, mean ± SD (n = 3); for selectivity index MCF-7: versus CCD-1079Sk
Method: as §2, §3, §4

[7] = system: A549 (human lung carcinoma epithelial cells); experiment: MTT cell viability assay, A549; details: for IC50: Homo sapiens, A549, 24 h, read-out: IC50, 24 h, A549; for selectivity index A549: versus CCD-1079Sk, 24 h
MCF-7 = system: MCF-7; parameters: method as in PMID 30160115; details: after 24 h; cited from earlier work
MDA-MB-231 = system: MDA-MB-231; parameters: method as in PMID 30160115; details: after 24 h; cited from earlier work
breast cancer tumor = system: breast cancer tumor; parameters: method as in PMID 30160115; details: mice, dose-dependent; cited from earlier work
[8] = parameters: method as in PMID 28856938; details: annphenone isolated from a Euphorbia species; cited from earlier work
MCF-7 cell line = system: MCF-7 cell line; parameters: method as in PMID 28856938; details: data not included in the cited paper; cited from earlier work
A549 cell line = system: A549 cell line; parameters: method as in PMID 28856938; details: data not included in the cited paper; cited from earlier work
Hep-3B cell line = system: Hep-3B cell line; parameters: method as in PMID 28856938; details: data not included in the cited paper; cited from earlier work
U118 cell line = system: U118 cell line; parameters: method as in PMID 28856938; details: data not included in the cited paper; cited from earlier work
U87 cell line = system: U87 cell line; parameters: method as in PMID 28856938; details: data not included in the cited paper; cited from earlier work
V79–4 cells = system: V79–4 cells; parameters: method as in PMID 18550394; details: cited from earlier work

Structure (SMILES)	ABTS IC50 [1] [µg/mL]	CUPRAC IC50 (A0.5: concentration of 0.500 Absorbance value) [3] [µg/mL]	IC50 [5] [µg/mL]	IC50 [6] [µg/mL]	selectivity index MCF-7 [6]	IC50 [7] [µg/mL]	selectivity index A549 [7]	further results
COc1ccc(O)c(C(C)(C)C)c1 [BHA, Butylated hydroxy anisol]	7.23 ± 0.01	24.49 ± 0.19						DPPH IC50 [2]: 28.59 ± 0.06 µg/mL; β-carotene IC50 [4]: 1.34 ± 0.04 µg/mL
O=c1[nH]cc(F)c(=O)[nH]1 [5-fluorouracil, reference compound]								antiproliferative IC50 on HepG2 cells (HepG2 cells): 0.33 µg/mL
O=c1c(O[C@@H]2O[C@H](CO)[C@H](O)[C@H](O)[C@H]2O)c(-c2ccc(O)c(O)c2)oc2cc(O)cc(O)c12 [Hyperoside, Quercetin-3-O-β-galactopyranoside]			250 ± 40 (≈ 538 µM)	370 ± 20 (≈ 797 µM)	0.67	600 ± 70 (≈ 1290 µM)	0.41	
COc1cccc2c1C(=O)c1c(O)c3c(c(O)c1C2=O)C[C@@](O)(C(=O)CO)C[C@@H]3O[C@H]1C[C@H](N)[C@H](O)[C@H](C)O1 [Doxorubicin, reference compound]			280 ± 10 (≈ 515 µM)	40 ± 10 (≈ 73.6 µM)	7.0	10 ± 10 (≈ 18.4 µM)	28.0	
Cc1c(C)c2c(c(C)c1O)CC[C@@](C)(CCC[C@H](C)CCC[C@H](C)CCCC(C)C)O2 [α-Toc, Tocopherol]	27.70 ± 0.28	134.53 ± 0.19						DPPH IC50 [2]: 36.35 ± 0.24 µg/mL
Cc1cc(C(C)(C)C)c(O)c(C(C)(C)C)c1 [BHT, Butylated hydroxy toluene]	21.67 ± 0.87	26.85 ± 1.50						
CC[C@H](CC[C@@H](C)[C@H]1CC[C@H]2[C@@H]3CC=C4C[C@@H](O[C@@H]5O[C@H](CO)[C@@H](O)[C@H](O)[C@H]5O)CC[C@]4(C)[C@H]3CC[C@]12C)C(C)C [Daucosterol, β-sitosterol-3-O-β-glucopyranoside]			260 ± 30 (≈ 451 µM)	580 ± 20 (≈ 1010 µM)	0.44	180 ± 20 (≈ 312 µM)	1.44	IC50 (MCF-7): 30.8 mM; IC50 (MDA-MB-231): 49.8 mM; tumor volume (breast cancer tumor): decrease; tumor weight (breast cancer tumor): decrease
COc1cc(O[C@@H]2O[C@H](CO)[C@@H](O)[C@H](O)[C@H]2O)cc(O)c1C(C)=O [Annphenone, 2,4-dihydroxy-6-methoxy-acetophenone 4-O-β-D-glucopyranoside]			300 ± 50 (≈ 871 µM)	360 ± 20 (≈ 1050 µM)	0.83	250 ± 10 (≈ 726 µM)	1.20	DPPH scavenging IC50 [8]: 23.23 ± 1.8 µg/mL; cytotoxicity against MCF-7 (MCF-7 cell line): no cytotoxicity; cytotoxicity against A549 (A549 cell line): no cytotoxicity; cytotoxicity against Hep-3B (Hep-3B cell line): no cytotoxicity; cytotoxicity against U118 (U118 cell line): no cytotoxicity; cytotoxicity against U87 (U87 cell line): no cytotoxicity; antiproliferative IC50 on HepG2 cells (HepG2 cells): 2.0 µg/mL; cytoprotective effect against H2O2-induced apoptosis (V79–4 cells): confirmed
